Test results published in patent US4962113A, “Pyridinium derivatives, their production and use” (Takeda Chemical Industries, Ltd, priority 1987, dated 1990).
Read-outs that look alike come from different tables or passages of the source.

How the values were obtained:
[1] = tested on: platelet aggregation (PAF); test: Inhibitory action on PAF-induced rabbit platelet aggregation; type: cell-based; details: Oryctolagus cuniculus, read-out: inhibitory percentage (platelet aggregation); for inhibition at 3 µM: 3 × 10^-6 M; for inhibition at 0.3 µM: 3 × 10^-7 M; for inhibition at 0.03 µM: 3 × 10^-8 M
Description: Blood was collected directly from the hearts of male rabbits using a syringe containing, as an anticoagulant, 3.15% citric acid (one part to 9 parts of blood). The blood was subjected to centrifuge at 800 rpm for ten minutes at room temperature to obtain platelet rich plasma (PRP). The remaining blood was further subjected to centrifuge at 3000 rpm for ten minnutes to separate platelet poor plasma (PPP) as the supernatant. PRP was diluted with PPP, and the number of platelets was adjusted to about 500,000/ μl. This PRP(250 μl) was stirred for two minutes at 37° C., and there was added a test sample, and the mixture was stirred for further two minutes, followed by addition of PAF of a given concentration. Platelet aggregation was examined by means of a platelet-agglutometer (manufactured by Rika Denki). Platelet aggregation preventing action of the test sample was determined based on the maximum percent light transmission (maximum percent. agglutination).

[2] = tested on: PAF-induced hypotension; test: Inhibitory action on PAF-induced hypotension in rats; type: in vivo, rat (Sprague-Dawley); details: Rattus norvegicus, read-out: Inhibitory Rate (Lowering of Blood Pressure); for inhibition in vivo at 0.01 mg/kg / inhibition in vivo at 0.03 mg/kg: iv; for inhibition in vivo at 1 mg/kg / inhibition in vivo at 3 mg/kg / inhibition in vivo at 10 mg/kg: oral
Description: Sprague-Dawley male rats, each weighing about 250 g, were subjected to the experiment. The rats were cannulated on the side of femoral artery for measuring the blood pressure, and on the side of femoral vein for administering the drug. The blood pressure was measured through a pressure transducer and recorded. First, PAF (1 μg/kg) was administered intravenously (i.v.) to examine the extent of lowering of blood pressure. Then, the test samples were administered intravenously or orally. […]
The inhibitory action on PAF-induced hypotension (% inhibition) is indicated as the ratio of blood pressure-lowering degree (Δ mmHg) induced by PAF after administration of test samples relative to blood pressure-lowering degree (Δ mmHg) induced by PAF before administration of test samples.

Row | Compound | inhibition at 3 µM [1] | inhibition at 0.3 µM [1] | inhibition at 0.03 µM [1] | inhibition in vivo at 1 mg/kg ([2]; 1 hr.) | inhibition in vivo at 1 mg/kg ([2]; 2 hr.) | inhibition in vivo at 1 mg/kg ([2]; 4 hr.) | inhibition in vivo at 1 mg/kg ([2]; 6 hr.) | inhibition in vivo at 1 mg/kg ([2]; 8 hr.) | inhibition in vivo at 3 mg/kg ([2]; 1 hr.) | inhibition in vivo at 3 mg/kg ([2]; 2 hr.) | inhibition in vivo at 3 mg/kg ([2]; 4 hr.) | inhibition in vivo at 3 mg/kg ([2]; 6 hr.) | inhibition in vivo at 3 mg/kg ([2]; 8 hr.) | also measured
1 | CCC[n+]1cc(Br)cc(C(=O)N(CCOC(=O)NCCOC(=O)Nc2cccc3ccccc23)c2ccc(I)cc2)c1 [Production Example 25, 5-bromo-3-[N-(4-iodophenyl)-N-[2-[2-(1-naphthylcarbamoyloxy)ethyl]carbamoyloxy]ethyl]carbamoyl-1-propylpyridinium chloride] | 100% | 100% | 18% |  |  |  |  |  |  |  |  |  |  | 
2 | CCN(CCOC(=O)NCCOc1cccc2ccccc12)C(=O)c1cc(Br)c[n+](CC)c1 [Production Example 15, 5-bromo-1-ethyl-3-[N-ethyl-N-[2-[2-(1-naphthyloxy)ethyl]carbamoyloxy]ethyl]carbamoylpyridinium iodide] | 100% | 100% | 22% |  |  |  |  |  |  |  |  |  |  | 
3 | CCC[n+]1cc(Cl)cc(C(=O)N(CCC(=O)NCCOC(=O)N2CCc3ccccc3C2)c2ccccc2)c1 [Production Example 88, 5-Chloro-3-[N-[2-[[2-(1,2,3,4-tetrahydroisoquinolyl)carbonyloxy]ethyl]carbamoyl]ethyl-N-phenyl]carbamoyl-1-propylpyridinium chloride] | 100% | 100% | 33% | 70% | 75% | 73% | 61% | 58% | 93% | 95% | 98% | 83% | 85% | inhibition in vivo at 0.01 mg/kg ([2]; 1 hr.): 59%; inhibition in vivo at 0.01 mg/kg ([2]; 2 hr.): 55%; inhibition in vivo at 0.01 mg/kg ([2]; 4 hr.): 40%; inhibition in vivo at 0.01 mg/kg ([2]; 6 hr.): 25%; inhibition in vivo at 0.01 mg/kg ([2]; 8 hr.): 19%; inhibition in vivo at 0.01 mg/kg ([2]; 5 min, i.v., 5 min.): 95%
4 | CCC[n+]1cc(Br)cc(C(=O)N(CCOC(=O)NCCOC(=O)Nc2cccc3ccccc23)c2cccc(Cl)c2)c1 [Production Example 44, 5-bromo-3-[N-(3-chlorophenyl)-N-[2-[2-(1-naphthylcarbamoyloxy)ethyl]carbamoyloxy]ethyl]carbamoyl-1-propylpyridinium chloride] | 100% | 100% | 27% | 62% | 74% | 73% | 68% | 61% | 77% | 84% | 97% | 94% | 92% | inhibition in vivo at 0.01 mg/kg ([2]; 1 hr.): 58%; inhibition in vivo at 0.01 mg/kg ([2]; 2 hr.): 54%; inhibition in vivo at 0.01 mg/kg ([2]; 4 hr.): 47%; inhibition in vivo at 0.01 mg/kg ([2]; 6 hr.): 41%; inhibition in vivo at 0.03 mg/kg ([2]; 1 hr.): 81%; inhibition in vivo at 0.03 mg/kg ([2]; 2 hr.): 71%; inhibition in vivo at 0.03 mg/kg ([2]; 4 hr.): 64%; inhibition in vivo at 0.03 mg/kg ([2]; 6 hr.): 59%; inhibition in vivo at 0.03 mg/kg ([2]; 8 hr.): 39%; inhibition in vivo at 0.01 mg/kg ([2]; 5 min, i.v., 5 min.): 68%; inhibition in vivo at 0.03 mg/kg ([2]; 5 min, i.v., 5 min.): 97%
5 | CCC[n+]1cc(Br)cc(C(=O)N(CCOC(=O)NCCOC(=O)N2CCc3ccccc3C2)c2ccccc2)c1 [Production Example 77, 5-Bromo-3-[N-[2-[[2-(1,2,3,4-tetrahydroisoquinolyl)carbonyloxy]ethyl]carbamoyloxy]ethyl-N-phenyl]carbamoyl-1-propylpyridinium chloride] | 100% | 100% | 51% | 56% | 64% | 72% | 66% | 59% | 89% | 100% | 99% | 99% | 97% | inhibition in vivo at 0.03 mg/kg ([2]; 1 hr.): 100%; inhibition in vivo at 0.03 mg/kg ([2]; 2 hr.): 97%; inhibition in vivo at 0.03 mg/kg ([2]; 4 hr.): 62%; inhibition in vivo at 0.03 mg/kg ([2]; 6 hr.): 46%; inhibition in vivo at 0.03 mg/kg ([2]; 8 hr.): 33%; inhibition in vivo at 0.03 mg/kg ([2]; 5 min, i.v., 5 min.): 100%
6 | CCC[n+]1cc(Br)cc(C(=O)N(CCOC(=O)NCCCOC(=O)Nc2cccc3ccccc23)c2ccccc2)c1 [Production Example 52, 5-bromo-3-[N-2-[3-(1-naphthylcarbamoyloxy)propyl]carbamoyloxy]ethyl-N-phenyl]carbamoyl-1-propyl pyridinium chloride] | 100% | 100% | 27% | 30% | 47% | 37% | 51% | 31% | 87% | 92% | 89% | 88% | 81% | inhibition in vivo at 10 mg/kg ([2]; 1 hr.): 92%; inhibition in vivo at 10 mg/kg ([2]; 2 hr.): 95%; inhibition in vivo at 10 mg/kg ([2]; 4 hr.): 98%; inhibition in vivo at 10 mg/kg ([2]; 6 hr.): 96%; inhibition in vivo at 10 mg/kg ([2]; 8 hr.): 95%
7 | CCCCCCCCCCCCCCCCCCNC(=O)OCC(COC(=O)NCCN(C)C(=O)c1ccc[n+](CC)c1)OC (centres unmarked) [Production Example 1, 3-[N-[2-(2-methoxy-3-octadecylcarbamoyloxypropoxycarbonyl)]aminoethyl-N-methyl]carbamoyl-1-ethylpyridinium iodide] | 100% | 100% | 9% |  |  |  |  |  |  |  |  |  |  | 
8 | CCC[n+]1cc(Br)cc(C(=O)N(CCOC(=O)NCCOC(=O)Nc2cccc3ccccc23)c2ccc(Cl)cc2)c1 [Production Example 22, 5-bromo-3-[N-(4-chlorophenyl)-N-[2-[2-(1-naphthylcarbamoyloxy)ethyl]carbamoyloxy]ethyl]carbamoyl-1-propylpyridinium chloride] | 100% | 100% | 11% |  |  |  |  |  |  |  |  |  |  | 
9 | CCCCN(CCOC(=O)NCCOc1cccc2ccccc12)C(=O)c1cc(Br)c[n+](CC)c1 [Production Example 19, 5-bromo-1-ethyl-3-[N-butyl-N-[2-[2-(1-naphthyloxy)ethyl]carbamoyloxy]ethyl]carbamoylpyridinium iodide] | 100% | 100% | 42% |  |  |  |  |  |  |  |  |  |  | 
10 | CCC[n+]1cc(Br)cc(C(=O)N(CCOC(=O)NCCOC(=O)Nc2cccc3ccccc23)c2cc(OC)c(OC)c(OC)c2)c1 [Production Example 27, 5-bromo-3-[N-[2-[2-(1-naphthylcarbamoyloxy)ethyl]carbamoyloxy]ethyl-N-(3,4,5-trimethoxyphenyl)]carbamoyl-1-propylpyridinium chloride] | 100% | 100% | 3% |  |  |  |  |  |  |  |  |  |  | 
11 | CC[n+]1cc(Br)cc(C(=O)N(CCOC(=O)NCCOc2cccc3ccccc23)c2ccccc2)c1 [Production Example 6, 5-bromo-3-[N-[2-[2-(1-naphthyloxy)ethyl]carbamoyloxy]ethyl-N-phenyl]carbamoyl-1-ethylpyridinium iodide] | 100% | 100% | 34% |  |  |  |  |  |  |  |  |  |  | 
